For five compounds, mutagenic call results are on record in PubChem BioAssay AID1259407 (Chemical Carcinogenesis Research Information System (CCRIS), 2018).

The data set deals with CCRIS mutagenicity, Ames/micronucleus/aberration tests. As to the kind of experiment: CCRIS mutagenicity studies.
Where [1] appears, read: Test System: AMES SALMONELLA TYPHIMURIUM, Strain/Indicator: TA100, Metabolic Activation: NONE, Method: STANDARD PLATE.
Setting [2] is: Test System: AMES SALMONELLA TYPHIMURIUM, Strain/Indicator: TA100, Metabolic Activation: NONE, Method: PREINCUBATION

The source made the active and inactive calls. The rule behind the calls is not given here.

On to `CCN(CC)C(=O)Nc1ccc(OCC(O)CNC(C)(C)C)c(C(C)=O)c1` (configuration not stated), for which the mutagenic call (Test System: AMES SALMONELLA TYPHIMURIUM, Strain/Indicator: TA97, Metabolic Activation: NONE, Method: STANDARD PLATE) is “inactive; negative”; the mutagenic call (Test System: AMES SALMONELLA TYPHIMURIUM, Strain/Indicator: TA98, Metabolic Activation: NONE, Method: STANDARD PLATE) was “inactive; negative”; the mutagenic call (Test System: AMES SALMONELLA TYPHIMURIUM, Strain/Indicator: TA98, Metabolic Activation: RAT, LIVER, S-9, AROCLOR 1254, Method: STANDARD PLATE) is “inactive; negative”; the mutagenic call (Test System: AMES SALMONELLA TYPHIMURIUM, Strain/Indicator: TA98, Metabolic Activation: RAT, S-9, AROCLOR 1254, Method: STANDARD PLATE) is “inactive; negative”; the mutagenic call under setting [1] was “inactive; negative”; the mutagenic call (Test System: AMES SALMONELLA TYPHIMURIUM, Strain/Indicator: TA100, Metabolic Activation: RAT, LIVER, S-9, AROCLOR 1254, Method: STANDARD PLATE) is “inactive; negative”. Moreover, the mutagenic call is “inactive; negative” (Test System: AMES SALMONELLA TYPHIMURIUM, Strain/Indicator: TA100, Metabolic Activation: RAT, S-9, AROCLOR 1254, Method: STANDARD PLATE); “inactive; negative” (Test System: AMES SALMONELLA TYPHIMURIUM, Strain/Indicator: TA102, Metabolic Activation: NONE, Method: STANDARD PLATE); “inactive; negative” (Test System: AMES SALMONELLA TYPHIMURIUM, Strain/Indicator: TA1535, Metabolic Activation: NONE, Method: STANDARD PLATE); “inactive; negative” (Test System: AMES SALMONELLA TYPHIMURIUM, Strain/Indicator: TA1535, Metabolic Activation: RAT, S-9, AROCLOR 1254, Method: STANDARD PLATE); “inactive; negative” (Test System: AMES SALMONELLA TYPHIMURIUM, Strain/Indicator: TA1537, Metabolic Activation: NONE, Method: STANDARD PLATE); “inactive; negative” (Test System: AMES SALMONELLA TYPHIMURIUM, Strain/Indicator: TA1537, Metabolic Activation: RAT, S-9, AROCLOR 1254, Method: STANDARD PLATE). The mutagenic call is, setting by setting: (Test System: AMES SALMONELLA TYPHIMURIUM, Strain/Indicator: TA1538, Metabolic Activation: NONE, Method: STANDARD PLATE) “inactive; negative”; (Test System: AMES SALMONELLA TYPHIMURIUM, Strain/Indicator: TA1538, Metabolic Activation: RAT, S-9, AROCLOR 1254, Method: STANDARD PLATE) “inactive; negative”; (Test System: E. COLI, Strain/Indicator: WP2, Metabolic Activation: NONE, Method: STANDARD PLATE) “inactive; negative”; (Test System: E. COLI, Strain/Indicator: WP2, Metabolic Activation: RAT, S-9, AROCLOR 1254, Method: STANDARD PLATE) “inactive; negative”; (Test System: E. COLI, Strain/Indicator: WP2 UVRA, Metabolic Activation: NONE, Method: STANDARD PLATE) “inactive; negative”; (Test System: E. COLI, Strain/Indicator: WP2 UVRA, Metabolic Activation: RAT, S-9, AROCLOR 1254, Method: STANDARD PLATE) “inactive; negative”.

`Cc1cc([N+](=O)[O-])ccc1N`: the mutagenic call is “active; positive (ploidy changes)” (End Point: IN VITRO CHROMOSOMAL ABERRATIONS, Test System: CHL CELLS, Metabolic Activation: NONE); “inactive; negative; authors report equivocal results for ploidy changes at 0.25 mg/ml and” (End Point: IN VITRO CHROMOSOMAL ABERRATIONS, Test System: CHL CELLS, Metabolic Activation: RAT, LIVER, S-9, SODIUM PHENOBARBITAL AND 5,6-BENZOFLAVONE); “active; positive (numerical aberrations)” (End Point: IN VITRO CHROMOSOMAL ABERRATIONS, Test System: CHL/IU CELLS, Metabolic Activation: NONE); “inactive; negative” (End Point: IN VITRO MICRONUCLEUS, Test System: CHL/IU CELLS, Metabolic Activation: NONE); “inactive; negative” (Test System: AMES SALMONELLA TYPHIMURIUM, Strain/Indicator: TA98, Metabolic Activation: RAT, LIVER, S-9, PCB, Method: PREINCUBATION); “inactive; negative” under setting [2]. The mutagenic call runs as follows: (Test System: AMES SALMONELLA TYPHIMURIUM, Strain/Indicator: TA100, Metabolic Activation: RAT, LIVER, S-9, KANECHLOR 500, Method: PREINCUBATION) “inactive; negative”; (Test System: UDS RODENT HEPATOCYTES, Strain/Indicator: THY INCORP (NON-S-PHASE), Metabolic Activation: NONE, Method: AUTORADIOGRAPHY) “inactive; negative”.

On to `CCCC(C)(COC(N)=O)COC(=O)NC(C)C` (configuration not stated), for which the mutagenic call (Test System: AMES SALMONELLA TYPHIMURIUM, Strain/Indicator: TA98, Metabolic Activation: HAMSTER, LIVER, S-9, AROCLOR 1254 (10%), Method: PREINCUBATION) is “inactive; negative”; the mutagenic call (Test System: AMES SALMONELLA TYPHIMURIUM, Strain/Indicator: TA98, Metabolic Activation: NONE, Method: PREINCUBATION) was “inactive; negative”; the mutagenic call (Test System: AMES SALMONELLA TYPHIMURIUM, Strain/Indicator: TA98, Metabolic Activation: RAT, LIVER, S-9, AROCLOR 1254 (10%), Method: PREINCUBATION) was “inactive; negative”; the mutagenic call (Test System: AMES SALMONELLA TYPHIMURIUM, Strain/Indicator: TA100, Metabolic Activation: HAMSTER, LIVER, S-9, AROCLOR 1254 (10%), Method: PREINCUBATION) is “inactive; negative”; the mutagenic call under setting [2] is “inactive; negative”; the mutagenic call (Test System: AMES SALMONELLA TYPHIMURIUM, Strain/Indicator: TA100, Metabolic Activation: RAT, LIVER, S-9, AROCLOR 1254 (10%), Method: PREINCUBATION) is “inactive; negative”. The mutagenic call (Test System: AMES SALMONELLA TYPHIMURIUM, Strain/Indicator: TA1535, Metabolic Activation: HAMSTER, LIVER, S-9, AROCLOR 1254 (10%), Method: PREINCUBATION) was “inactive; negative”; the mutagenic call (Test System: AMES SALMONELLA TYPHIMURIUM, Strain/Indicator: TA1535, Metabolic Activation: NONE, Method: PREINCUBATION) was “inactive; negative”; the mutagenic call (Test System: AMES SALMONELLA TYPHIMURIUM, Strain/Indicator: TA1535, Metabolic Activation: RAT, LIVER, S-9, AROCLOR 1254 (10%), Method: PREINCUBATION) is “inactive; negative”; the mutagenic call (Test System: AMES SALMONELLA TYPHIMURIUM, Strain/Indicator: TA1537, Metabolic Activation: HAMSTER, LIVER, S-9, AROCLOR 1254 (10%), Method: PREINCUBATION) is “inactive; negative”; the mutagenic call (Test System: AMES SALMONELLA TYPHIMURIUM, Strain/Indicator: TA1537, Metabolic Activation: NONE, Method: PREINCUBATION) was “inactive; negative”; the mutagenic call (Test System: AMES SALMONELLA TYPHIMURIUM, Strain/Indicator: TA1537, Metabolic Activation: RAT, LIVER, S-9, AROCLOR 1254 (10%), Method: PREINCUBATION) was “inactive; negative”.

In the case of `Fc1cc2cccnc2c(F)c1F`, for the setting “Test System: AMES SALMONELLA TYPHIMURIUM, Strain/Indicator: TA100, Metabolic Activation: RAT LIVER S-9, PHENOBARBITAL AND 5,6-BENZOFLAVONE, Method: PREINCUBATION”, the mutagenic call was “inactive; negative”.

As to `CCCCOCN(C(=O)CCl)c1c(CC)cccc1CC`, the mutagenic call runs as follows: under setting [1], “inactive; negative”; (Test System: AMES SALMONELLA TYPHIMURIUM, Strain/Indicator: TA100, Metabolic Activation: S-9 MIX, Method: STANDARD PLATE) “active; positive”; (Test System: Ames Salmonella typhimurium, Strain/Indicator: TA97, Metabolic Activation: None, Method: Suspension) “inactive; negative”; (Test System: Ames Salmonella typhimurium, Strain/Indicator: TA97, Metabolic Activation: Rat, Liver, S-9, Aroclor 1254 (10% v/v), Method: Preincubation) “inactive; negative”; (Test System: Ames Salmonella typhimurium, Strain/Indicator: TA98, Metabolic Activation: None, Method: Preincubation) “inactive; negative”; (Test System: Ames Salmonella typhimurium, Strain/Indicator: TA98, Metabolic Activation: Rat, Liver, S-9, Aroclor 1254 (10% v/v), Method: Suspension) “inactive; negative”. Besides, the mutagenic call reads like this: (Test System: Ames Salmonella typhimurium, Strain/Indicator: TA100, Metabolic Activation: None, Method: Suspension) “inactive; negative”; (Test System: Ames Salmonella typhimurium, Strain/Indicator: TA100, Metabolic Activation: Rat, Liver, S-9, Aroclor 1254 (10% v/v), Method: Suspension) “inactive; negative”.
